# Entries after “also recorded” stand apart in the source; their conditions may differ. Like-named read-outs stand apart in the source and are kept apart here.
# Columns and labels:
# tumors = conditions: cited from earlier work
# KHT fibrosarcoma tumors = test: In vivo assay for radiosensitization activity; set-up: species or system hybrid mice (B6C3F1); conditions: KHT tumors in mice, relative to misonidazole
# Method: In Vivo Assay for Radiosensitization Activity
# For this assay KHT fibrosarcoma tumors in hybrid mice (B6C3F1) weighing 20-25 g are used. The mice are randomized and implanted SC with the appropriate tumor brei on Day 0 (one implant/mouse). Samples from each donor tumor and/or from the final brei are incubated in thioglycolate media as a check for gross bacterial contamination. On Day 8 tumors are measured in two dimensions with calipers and animals with tumor masses in the range of 500 to 700 mg are selected for the assay. At this point the tumors contain approximately 20% hypoxic cells.
# The test agents are dissolved in any of several vehicles at a fixed injection dose equal to 90-100% of the maximum tolerated dose. Additional suitable controls of test compound (no irradiation) and vehicle-injected and irradiated mice are also included. Mice are irradiated at a dose of 1700 RADs at various intervals both prior to and after intraperitoneal administration of the test agents.
# By using these intervals, an indication of both the optimum time to irradiate and the degree of sensitization are obtained. Irradiation of the KHT tumors is by whole body irradiation of animals in movement restricting jigs at different total exposures as indicated. The x-ray source is a Phillips 320 KV instrument with a half-value thickness of 2.0 mm copper and a target to source distance of 17 inches, with a delivery rate of 2.0 Gy/minute. Animals are monitored for signs of acute toxicity after treatment.
# After incubation for 12-16 days at 37° and staining, the colonies are counted. The data are expressed as % control versus time.
# L1210 cells = test: Inhibition of the repair of radiation-induced DNA damage as assessed by alkaline elution; type: cell-based; conditions: L1210 cells, 10 Gy x-rays, class symbols
# Method: Inhibition of the Repair of Radiation-Induced DNA Damage as Assessed by Alkaline Elution The basic alkaline elution assay is carried out according to the procedure of K. W. Kohn, […]. Erickson, and L. A. Zwelling in DNA Repair: A Laboratory Manual of Research Procedures (eds. E. C. Freidburg and […]) with slight modifications. Briefly, suspension cultures of exponentially growing L1210 cells (total of 4×10^6 cells) are labeled with 0.02 μCi/ml of [^14 C] thymidine plus 1 nmol/ml of unlabeled thymidine for 24 hours prior to use. L1210 cells used as an internal standard are grown in media supplemented with 0.1 μCi/ml of [^3 H]thymidine and 1 nmol/ml unlabeled thymidine. For the elution protocol cells are removed from the culture flasks, centrifuged, and resuspended in fresh media. Drug treatment for experimental cells is for one hour at 37°. After the treatment period control and drug-treated cells are given a dose of 10 Gy of x-rays and incubated at 37° C. for 10 minutes to allow for repair. Samples consisting of 5×10^5 cells contained in 5 ml of ice cold PBS are deposited directly on 25 mm polycarbonate filters (2 micron pore size). The cells are washed with 5 ml of cold PBS, then lysed by the addition of 5 ml of lysis solution (0.2% SDS, 0.25M tetrasodium EDTA pH 9.7). All procedures commencing at the time of lysis are carried out in the dark. Subsequent to lysis samples are treated with 2 ml of lysis solution containing proteinase-K (0.5 mg/ml) for one hour. The filters are then eluted with tetrapropyl ammonium hydroxide/0.025M EDTA (free acid form)/0.1% SDS, pH 12.1, at a constant flow rate of 0.037 ml/min. Fractions of 2 ml are collected in scintillation vials. […] To each fraction collected and the filter solution 15 ml of modified Ready-Gel scintillation fluid containing 0.7% acetic acid is added. The frequency of single-stranded DNA breakage was calculated as described by Kohn, et al. The data is corrected for the number of single-strand breaks in the […] samples (~20%).
# V79 cells = test: In vitro radiosensitizing activity at 37°: shoulder modifying effects (reduction in Dq); type: cell-based
# Method: The shoulder region represents the inherent repair capabilities of a given cell line. […] To determine the hypoxic x-ray dose response, cells are rendered hypoxic four hours prior to the addition of the test compound by placing them in a 37° C. incubator within an anaerobic glove chamber (Forma). […] Drug is added (0.1 ml into 2 ml media in petri dish) within the anaerobic chamber and drug treatment is at the highest nontoxic dose for one hour at 37°. The oxic x-ray dose response is determined in a similar manner except that all manipulations are carried out in air. […] Cytotoxicity controls (drug only, no irradiation) are included as well as oxic and hypoxic untreated controls (irradiation only, no drug). Immediately following irradiation, cells are rinsed twice with 2 ml fresh media prior to the addition of 5 ml of fresh media. The cells are then incubated at 37° C. After six days, dishes are stained with crystal violet and colonies of 50 or more cells are counted to determine percent surviving cells versus x-ray dose. […] This is expressed by percent reduction in Dq where Dq is defined as the dose at the intersection of the regression line for the logarithmic portion of the survival curve with the 100% survival level. This is taken to represent the width of the shoulder region of the survival curve.
# [1] = biological target: T1, Poly(ADP-ribose) synthetase (Bos taurus, UniProt P18493); test: Inhibition of Poly(ADP-ribose) synthetase; type: biochemical, calf; conditions: 30° C., 15 minutes, [3H]NAD; read-out: IC50
# T1 construct: Poly (ADP-ribose) synthetase from calf thymus; from tissue; host or cells: calf thymus
# Method: The enzyme assay is performed by placing the following in small glass tubes kept at 4°: 100 μl of buffer consisting of 0.5M Tris-HCl pH 8.0, 50 mM MgCl2, and 5 mM dithiothreitol; 50 μl of 1 mM [^3 H]nicotinamide adenine dinucleotide having a specific activity of 15 μCi/μmol; 100 μl of calf thymus DNA (0.3 mg/ml in water); 50 μl of calf thymus histone (Sigma, Type IIA, 0.5 mg/ml); 50 μl of inhibitor or inhibitor solvent; 150 μl of enzyme. The components are thoroughly mixed and warmed to 30° C. in a water bath. After 15 minutes the reaction is stopped by adding 2 ml of ice cold 15% trichloroacetic acid and the tubes are placed on ice for 15 minutes. The precipitate is collected on glass fiber filters and washed five times with ice cold 15% trichloroacetic acid. The filters were dried and radioactivity determined in a liquid scintillation counter.
# [2] = cited from earlier work; for peripheral neuropathy and convulsions: mice
# hypoxic tumor cells = conditions: cited from earlier work
# [3] = biological target: T1, Poly(ADP-ribose) synthetase; conditions: cited from earlier work
# [4] = system: cells exposed to radiation; conditions: cited from earlier work
# T1 sequence (P18493 whole entry): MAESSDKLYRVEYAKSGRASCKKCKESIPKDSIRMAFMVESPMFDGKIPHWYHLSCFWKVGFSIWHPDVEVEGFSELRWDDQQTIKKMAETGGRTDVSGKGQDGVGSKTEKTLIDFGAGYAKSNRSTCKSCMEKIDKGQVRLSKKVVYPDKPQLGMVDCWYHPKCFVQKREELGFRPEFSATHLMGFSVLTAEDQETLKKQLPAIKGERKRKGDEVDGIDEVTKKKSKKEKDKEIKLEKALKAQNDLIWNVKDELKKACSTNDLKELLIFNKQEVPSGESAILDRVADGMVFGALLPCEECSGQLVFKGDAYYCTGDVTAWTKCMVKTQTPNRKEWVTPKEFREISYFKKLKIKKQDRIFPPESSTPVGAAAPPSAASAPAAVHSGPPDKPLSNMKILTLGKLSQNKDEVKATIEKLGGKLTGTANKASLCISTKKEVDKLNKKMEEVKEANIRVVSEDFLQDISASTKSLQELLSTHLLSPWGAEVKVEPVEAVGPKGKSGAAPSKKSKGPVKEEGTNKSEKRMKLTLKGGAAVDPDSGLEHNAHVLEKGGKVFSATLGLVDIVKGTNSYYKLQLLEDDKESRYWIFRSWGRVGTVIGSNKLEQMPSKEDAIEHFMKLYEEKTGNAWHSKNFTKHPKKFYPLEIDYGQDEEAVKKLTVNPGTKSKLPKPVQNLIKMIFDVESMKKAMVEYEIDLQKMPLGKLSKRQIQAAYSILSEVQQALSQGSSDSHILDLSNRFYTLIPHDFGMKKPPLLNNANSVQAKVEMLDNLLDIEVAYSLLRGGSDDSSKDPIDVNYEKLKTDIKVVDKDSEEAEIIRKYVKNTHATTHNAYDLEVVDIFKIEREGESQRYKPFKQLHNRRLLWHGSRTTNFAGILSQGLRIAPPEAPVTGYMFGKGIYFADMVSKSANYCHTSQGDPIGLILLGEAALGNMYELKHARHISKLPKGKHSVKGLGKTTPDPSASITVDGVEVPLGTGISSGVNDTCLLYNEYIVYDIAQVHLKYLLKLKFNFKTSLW
compound,measurement,setting,value
CNC=O [N-methylformamide],sensitization of tumors to radiation,tumors,sensitize tumors to the lethal effects of radiation
"O=C1NCCc2c(O)cccc21 [Example II, 3,4-Dihydro-5-hydroxy-1(2H)-isoquinolinone]",In Vivo Radiosensitizing Activity,KHT fibrosarcoma tumors,+
same,Frequency of Unrepaired Strand Breaks,L1210 cells,++ (201-300)
same,Shoulder Modification (% Reduction in DQ),"V79 cells; hypoxic V79 cells, class symbols",+ (15-29%)
same,IC50,[1],100 nM
"COCC(O)Cn1ccnc1[N+](=O)[O-] (stereo not drawn) [misonidazole, α-(methoxymethyl)-2-nitro-1H-imidazole-1-ethanol]",CNS side effects,[2]; administered to mice,serious adverse CNS side effects
same,peripheral neuropathy and convulsions,[2],peripheral neuropathy effects and convolusions in mice
same,"CNS toxicity, use in humans",[2]; use in humans,limiting factor for their use in humans
same,radiosensitizing activity,hypoxic tumor cells,of value as a radio-sensitizer for hypoxic tumor cells; also recorded: effective as radiosensitizers for hypoxic cells in vivo
"Cc1ncc([N+](=O)[O-])n1CCO [metronidazole, 2-methyl-5-nitro-1H-imidazole-1-ethanol]",peripheral neuropathy and convulsions,[2],peripheral neuropathy effects and convolusions in mice
same,CNS side effects,"[2]; mouse, in vivo",serious adverse CNS side effects
same,"CNS toxicity, use in humans","[2]; mouse, in vivo",limiting factor for their use in humans
same,radiosensitizing activity,hypoxic tumor cells,effective as radiosensitizers for hypoxic cells in vivo; also recorded: active both in vitro and in vivo as a radiosensitizer
NC(=O)c1cccc(N)c1 [3-aminobenzamide],reduction of Dq,V79 cells,does not reduce Dq
same,inhibition of poly(ADP-ribose)synthetase,[3],previously known best inhibitor of poly(ADP-ribose)synthetase
same,killing of cells by DNA-damaging agents,[4]; certain cell lines,enhanced killing of these cells by the damaging agents
same,inhibition of postirradiation repair,[4],"inhibit this postirradiation repair process, thereby sensitizing cells to the lethal effects of radiation; also recorded: inhibited"

# Reference: patent US5177075A, “Substituted dihydroisoquinolinones and related compounds as potentiators of the lethal effects of radiation and certain chemotherapeutic agents; selected compounds, analogs and process” (priority 1991, dated 1993)
